Measurements published in a melting point compilation (Tetko et al.; mined from patent text by program, amines drawn as free bases though some values may be those of a salt).

Row | SMILES | melting point
1 | C[Si](C)(Cc1ccccc1)CN1C(=O)c2ccccc2C1=O | 91 to 92 °C
2 | CCOC(=O)Nc1c(OC)cc(CC(C#N)=CNc2ccccc2)cc1OC | 150 to 151 °C
3 | CCOC(=O)c1cnc2cc(Cl)c(F)cc2c1O | 283 to 290 °C
4 | COc1ccccc1Oc1cccc(CC(=O)O)c1OC | 121 to 122 °C
5 | c1ccc(OCn2c(Nc3cnon3)nc3ccccc32)cc1 | 171 to 173 °C
6 | CN1C(=O)NC(=O)C1(C)O (centres undefined) | 122 to 123 °C
7 | CCCCc1ccc(CC(Cl)C(=O)O)cc1 (centres undefined) | 52.7 to 53.6 °C
8 | O=C(O)COCCc1ccccc1 | 46 to 48 °C
9 | O=C1N[C@H](C(=O)O)CSCCCCCCCC1CS (some centres undefined) | 169 to 173 °C
10 | Cc1noc2cc3c(cc12)C1(CO3)C(=O)N(Cc2cccnc2)c2ccccc21 (centres undefined) | 176 to 177 °C
11 | NC(=O)C1CN(c2c(F)cc3c(=O)c(C(=O)O)cn(C4CC4)c3c2F)C1 | 295 to 298 °C
12 | Cc1ccc(-c2nc(COc3cccc(OCc4cccc(C)c4C(=O)O)c3)co2)s1 | 129 to 130 °C
13 | O=C(O)c1ccc2c(c1)C=Cc1ccc(C(=O)O)cc1S2(=O)=O | 375 °C
14 | ClCc1ccc(OCc2csc(-c3ccccc3)n2)nc1 | 117 to 118 °C
15 | COc1ccc(Oc2cc(Oc3ccc(OC)cc3)c(S(N)(=O)=O)cc2C(=O)O)cc1 | 246 to 248 °C
16 | CC1(C)COC(c2ccccc2-c2ccc(-c3ccccc3)cc2)=N1 | 95 to 97 °C
17 | O=S(=O)(CC(F)(F)F)NC(c1ccc(Cl)c2nc3n(c12)CCCN3c1c(Cl)cc(Cl)cc1Cl)C(F)(F)F (centres undefined) | 237 to 239 °C
18 | Cn1c(COc2ccc(C=O)cc2)nc2ccc(Sc3cc(C(C)(C)C)c(O)c(C(C)(C)C)c3)cc21 | 219 to 221 °C
19 | COc1ccc(-c2nc3n(c2-c2ccncc2)CCS3=O)cc1 (centres undefined) | 165 to 170 °C
20 | CCc1c(Sc2cc(Cl)cc(Cl)c2)c(C(N)=O)nn1CCO | 214 to 216 °C
21 | CCOC(=O)c1ncn2c1CN=C(c1ccccc1)c1cc(Cl)ccc1-2 | 174 to 175 °C
22 | CC(=O)CSC1C2=C(CCCC2)C(=O)N1c1ccc(Cl)cc1F (centres undefined) | 131 to 132 °C
23 | CCc1cn(C2CC(O)C(CNC(=O)Cc3ccccc3Br)O2)c(=O)nc1N (centres undefined) | 236 to 237 °C
24 | Cn1c(=O)c2cnc(O)n2c2ccccc21 | > 300 °C
25 | CC(Oc1ccc2nc(N)sc2c1)c1cc(F)cc(F)c1 (centres undefined) | 132 °C

Row | SMILES | melting point
26 | CC1C(C)(C)c2ccc(C(=O)CCC(=O)O)cc2C1(C)C (centres undefined) | 161 °C
27 | O=c1ccn(-c2cccc(C(F)(F)F)c2)nc1-c1c[nH]nc1-c1ccccc1 | 206 to 208 °C
28 | CC(C)COc1ccc(C(=O)O)cc1[N+](=O)[O-] | 184 to 186 °C
29 | O=C(NN=Cc1c(O)c(O)cc2ccccc12)c1cc2ccccc2cc1O | > 285 °C
30 | C#CC[C@H](c1nc2cc(Cl)ccc2c(=O)n1Nc1ccccc1)N(CCCN)C(=O)c1cc(F)cc(F)c1F | 168 to 170 °C
31 | CCCCn1c(=O)c2nc(C(=O)OCC)cn2c2ccccc21 | 205 to 209 °C
32 | O=C(O)CCc1cccc(Oc2cccc(-c3nnc(Nc4ccc(Cl)c(Cl)c4)s3)c2)c1 | 194 to 196 °C
33 | CC(=O)Oc1cc(C)cc(C(=O)N[C@@H](Cc2ccccc2)[C@H](O)C(=O)O)c1C | 220 to 224 °C
34 | COc1ccc2c(c1)CN(CCc1ccc([N+](=O)[O-])cc1)CC2 | 92 to 94 °C
35 | CN(Cc1ccc(NC(=O)C2=Cc3cc(-c4cccnc4)ccc3OCC2)cc1)C1CCOCC1 | 158 to 159 °C
36 | O=C1CC=C(c2ccc(F)cc2)CC1 | 44.5 to 46.5 °C
37 | COc1ccc(C2OC(=O)NC2C)cc1OC (centres undefined) | 98 to 99 °C
38 | Cc1c(Cl)nn(-c2ccc(Cl)cc2)c1Cl | 90 to 91.5 °C
39 | Nc1c(SC(F)(F)F)c(C=O)nn1-c1c(Cl)cc(C(F)(F)F)cc1Cl | 140 to 143 °C
40 | O=[N+]([O-])c1c(Br)nn(CCO)c1NCc1ccccc1 | 133 to 135 °C
41 | COc1ccc(-n2nc(CCCO)cc2-c2ccc(Cl)cc2)cc1 | 87.5 to 88 °C
42 | CCCCc1nc2ccc(O)cc2c(=O)n1Cc1ccc(-c2ccccc2-c2nnnn2COC)cc1 | 157 to 159 °C
43 | O=C(NNS(=O)(=O)c1ccccc1)c1ccc(Cl)cc1Cl | 168 to 170 °C
44 | CCC=Cc1nc2ccccc2n1-c1cccc(C#N)c1C | 125 °C
45 | CCc1ccc(-c2ccc(NC(=O)OC(C)(C)C)c([N+](=O)[O-])c2)cc1 | 94 to 99 °C
46 | CC(C)(C)OC(=O)N1CCC2(CC1)CC(CCc1ccccc1)=NO2 | 121 to 124 °C
47 | COc1nc(NC(=O)NS(=O)(=O)c2ccccc2C(=O)OC(C)C)nc(OC)n1 | 192 to 195 °C
48 | CCCCc1nc2c(N)nc3ccc(OCC(=O)N(CC)CC)cc3c2n1C | 186 to 188 °C
49 | CCOC(=S)SC(=CC(=O)c1cc(Cl)c(C)c(Cl)c1)C(=O)O | 126 to 128 °C
50 | O=S(=O)(Nc1cccc(CCOCc2cccc(-c3ccc(F)cc3)n2)c1)C(F)(F)F | 71 to 73 °C

Row | SMILES | melting point
51 | CCCC1NS(=O)(=O)N(CCl)C1=O (centres undefined) | 62 to 63.5 °C
52 | Cc1nn(-c2ccc(F)cc2)cc1C(=O)Nc1ccc(OCC(C)(C)C)c(Br)c1 | 193 to 194 °C
53 | Cc1ccc(C(=C/C=C/CO)c2ccc(C)cc2)cc1 | 82 to 83 °C
54 | O=S1(=O)C=CC=CC=N1 | 144 to 146 °C
55 | CN(C)CCCC(=O)Nc1nc2c(s1)-c1c(cnn1-c1ccccc1)CC2 | 165 to 166 °C
56 | CCCCCCOc1cc(O)c(-c2nc(-c3ccc(C)cc3C)nc(-c3ccc(C)cc3C)n2)cc1C(C)(C)c1ccccc1 | 111 to 115 °C
57 | COC(=O)c1ccc2c(Cl)ccnc2c1 | 118 to 119 °C
58 | CCC1OC(=O)C(C)C(OC2CC(C)(OC)C(O)C(C)O2)C(C)C(OC2OC(C)CC(N(C)C)C2O)C(C)(OC)CC(C)C(=O)C(C)C(O)C1(C)O (centres undefined) | 100 °C
59 | CNC(Cc1cc(Cl)ccc1N)c1sccc1C (centres undefined) | 59 to 61 °C
60 | COC1(C)CCc2cc(OC(=O)c3ccccc3)c(C)c(C)c2O1 (centres undefined) | 102 °C
61 | O[C@@H]1CN=C(c2ccc3ccccc3c2)O[C@H]1c1ccccc1 (racemic) | 172 °C
62 | COc1ccc(Cl)cc1NC(=O)NCC(=O)c1ccccc1 | 171 to 173 °C
63 | O=C(O)c1c(C(F)(F)F)nc2ccccc2c1O | 262 °C
64 | CC(C)c1cc([N+](=O)[O-])cc(C(C)C)c1OS(N)(=O)=O | 163 to 167 °C
65 | C[C@@H](n1cnc2cc(S(=O)(=O)c3ccccc3)ccc2c1=O)[C@](O)(Cn1cncn1)c1ccc(F)cc1F | 125 to 130 °C
66 | COc1cc(N)ccc1-c1ccc(-c2ccc(N)cc2OC)o1 | 201 to 202 °C
67 | Nc1cccc2c1CN(c1c(F)cc3c(=O)c(C(=O)O)cn(-c4ccc(F)cc4F)c3c1F)C2 | 264 to 266 °C
68 | O=C(c1cccc(Cl)n1)c1ccc(Cl)cc1Cl | 103 to 104 °C
69 | CN(C)c1ccc(/C=C/c2c(Cl)cccc2Cl)cc1 | 96 to 97 °C
70 | Cc1cc(-c2ccc(C(F)(F)F)cc2)cc(-c2cccc(-c3cccc(NS(=O)(=O)N4CCOCC4)c3)n2)n1 | 191 °C
71 | CCOC(=O)COc1ccc(C(=O)Nc2ccccc2Sc2ccccc2-c2nnn[nH]2)cc1OC | 179 to 181 °C
72 | CCOC(=O)C1=C(C)NC(N)(c2nc(-c3cccc(C(F)(F)F)c3)cs2)N=C1 (centres undefined) | 227 to 229 °C
73 | Cc1csc(C2=CCN(CCCC(=O)c3ccc(F)cc3)CC2)n1 | 81 to 82 °C
74 | Cc1c(Br)ccc(OC(=O)C(C)(C)C)c1C(=O)O | 144 to 145 °C
75 | CC#CNc1c([N+](=O)[O-])cc(C(F)(F)F)c(Cl)c1[N+](=O)[O-] | 86 to 87 °C

Row | SMILES | melting point
76 | COC1(c2ccc(N(C)C)cc2)OC(=O)c2ccccc21 (centres undefined) | 112 to 114 °C
77 | O=C1CC(C(=O)NC(c2ccccc2)c2ccc(Cl)cc2)Oc2ccc(F)cc21 (single isomer, unassigned; (+)) | 167 °C
78 | Nc1ncnc2c1c(-c1ccc(OCc3ccccc3)cc1)cn2-c1ccc(OCCn2ccnc2)cc1 | 105 to 107 °C
79 | OCCN1CCC(=C2c3ccccc3CCn3ncnc32)CC1 | 154 °C
80 | CC1(C)COc2ccc(C[C@@H](NC(=O)c3cccc4c(Cl)cccc34)[C@@H](O)c3cccc(Cl)c3)cc21 (racemic) | 191 to 192 °C
81 | CC(C)(CNC(=O)C(O)CO)c1ccc(C(=O)Nc2cn3cc(Cl)ccc3n2)cc1 (centres undefined) | 228 to 229 °C
82 | CCCCCCCCCC(=O)Nc1ccc(C=C(C#N)C(=O)OCC)cc1 | 76 °C
83 | O=Cc1c(Cl)n(CC2CC2)c2ccccc12 | 108 to 109 °C
84 | CN1CCC(Nc2ncc3ncnc(Nc4ccc(Oc5ccccc5)cc4)c3n2)CC1 | 157 °C
85 | O=[N+]([O-])c1ccc(C2NCCc3c2[nH]c2ccccc32)cc1 (centres undefined) | 190 °C
86 | CCN(c1nc(C)cc(-c2ccccc2Cl)n1)c1c(Br)cc(N(C)C)cc1OC | 131 to 132 °C
87 | N#Cc1cc(N)ccc1OC1CCCCC1 | 59 °C
88 | O=C1c2ccccc2C(=O)N1CC(=O)N(Cc1ccccc1)c1ccccc1 | 150 °C
89 | CCOc1cc(N)c(Cl)cc1C(=O)[NH+]([O-])CC1CN(Cc2ccccc2Cl)CCO1 (centres undefined) | 154 to 157 °C
90 | Oc1ccc(-c2ncc3ncc(-c4cccc(O)c4)cc3n2)cc1 | 256 to 257 °C
91 | Cc1nnnn1C(C=CC=O)=C(c1ccc(F)cc1)c1ccc(F)cc1 | 72 to 78 °C
92 | COc1ccc(-c2cc(-c3ccccc3)c(-c3ccccc3)s2)c(OC)c1 | 107 to 110 °C
93 | O=c1[nH]c2ccc(S(=O)(=O)N3CCN(c4ccccn4)CC3)c3c2c2c(cccc12)C3 | 263 to 270 °C
94 | C[C@@H]1C(=O)N(c2ccc(C#N)c(Cl)c2)[C@@H](C)[C@H]1O | 149 to 151 °C
95 | COC(=O)c1ccc([N+](=O)[O-])cc1S(=O)(=O)NC(C)(C)C | 122 to 124 °C
96 | O=CNNc1ccc(NC(=S)NCc2ccccc2)cc1 | 152 to 154 °C
97 | CC(C)C(NS(=O)(=O)c1ccc(Cl)s1)c1cccn1Cc1ccccc1 (centres undefined) | 102 to 103 °C
98 | COC(=O)C1=C(O)C(=O)O[C@@H]1C | 94 to 96 °C
99 | CC(=O)NC[C@H]1CN(c2ccc(I)c(F)c2)C(=O)O1 | 186 °C
